Experimental data: US20260317370A1, “METHOD OF DEPROTECTING AT LEAST ONE D-AMINO ACID AND/OR D-AMINO ACID DERIVATIVE PROTECTED FUNCTIONAL GROUP” (Martin-Luther-Universität Halle-Wittenberg, priority 2023, published 2026)
Counter-ions that a name gives are not always drawn.

Columns and labels:
Assay in all cases: additive influence on activity of D-stereospecific hydrolytic enzyme
Format in all cases: biochemical
Conditions in all cases: role: inhibitor (additive); substrate Abz-AAfFAAK(DNP)-OH
[1] = target: T1, D-stereospecific hydrolytic enzyme, SEQ ID No. 7 (Bacillus thuringiensis, UniProt A0A1W6WPK6)
T1 construct: E. coli, purified
T1 sequence (A0A1W6WPK6 41-389): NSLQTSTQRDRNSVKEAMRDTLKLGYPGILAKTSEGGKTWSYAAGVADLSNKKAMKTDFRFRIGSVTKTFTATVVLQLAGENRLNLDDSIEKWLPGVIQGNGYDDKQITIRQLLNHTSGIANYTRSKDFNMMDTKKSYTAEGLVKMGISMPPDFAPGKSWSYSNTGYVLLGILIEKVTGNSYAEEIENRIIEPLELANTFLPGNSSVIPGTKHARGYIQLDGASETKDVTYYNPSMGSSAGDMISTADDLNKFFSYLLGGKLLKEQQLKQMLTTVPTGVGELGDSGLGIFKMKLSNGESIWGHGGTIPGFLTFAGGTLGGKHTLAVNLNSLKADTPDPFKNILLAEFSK
Experimental: (§1) In further experiments, the hydrolysis reaction using D-stereospecific hydrolytic enzymes with SEQ ID No. 4, No. 6, No. 7, No. 8, No. 9 was carried out with internally quenched fluorogenic substrates (IQFS) (Abz-AAX/xaaFAAK(DNP)-OH) (Abz=2-aminobenzoic acid, DNP=2,4-dinitrophenol). By cleavage of the IQFS, a fluorescence signal is released and can be monitored by continuous fluorescence measurement (0.1 M NaPi, pH 8.0, 1% DMSO (v/v), 5-1000 nM enzyme, excitation wavelength 320 nm emission wavelength 420 nm, reaction volume 100 μl, 96-well micro titer plate, time scale 2 h). The respective model reaction is shown below (Formula 5). In Formula 5 DHy represents the respective D-stereospecific hydrolytic enzyme.
(§2) In addition, experiments were performed to investigate the effect of adding different additives in different concentrations based on the reaction mixture on the activity of D-stereospecific hydrolytic enzymes. The concentration of the respective additive was varied between 0 to 2.5 M. As additives, urea, guanidinium hydrochloride, NaCl and ß-mercaptoethanol (ß-ME) were used. The additives were added to the reaction mixture including the D-stereospecific hydrolytic enzyme and the peptide Abz-AAfFAAK(DNP)-OH. As D-stereospecific hydrolytic enzymes the D-stereospecific hydrolytic enzymes with SEQ ID No. 4, No. 6, No. 7, No. 8 and No. 9 were used.
(§3) The relative activity, in this case, is calculated by dividing the activity when adding an additive with a different concentration by the maximum activity of the respective D-stereospecific enzyme.
(§4) In Table 11, the concentration of additive (M) based on the reaction mixture at which 50% (*) or 10% (**) of the relative specific activity of the respective enzyme is still present is indicated.

[2] = target: T2, D-stereospecific hydrolytic enzyme, SEQ ID No. 4 (Bacillus cereus, UniProt P94288)
T2 construct: initiator Met form is 4A; E. coli, purified by ion exchange and gel filtration
T2 sequence (P94288 entry or part of it): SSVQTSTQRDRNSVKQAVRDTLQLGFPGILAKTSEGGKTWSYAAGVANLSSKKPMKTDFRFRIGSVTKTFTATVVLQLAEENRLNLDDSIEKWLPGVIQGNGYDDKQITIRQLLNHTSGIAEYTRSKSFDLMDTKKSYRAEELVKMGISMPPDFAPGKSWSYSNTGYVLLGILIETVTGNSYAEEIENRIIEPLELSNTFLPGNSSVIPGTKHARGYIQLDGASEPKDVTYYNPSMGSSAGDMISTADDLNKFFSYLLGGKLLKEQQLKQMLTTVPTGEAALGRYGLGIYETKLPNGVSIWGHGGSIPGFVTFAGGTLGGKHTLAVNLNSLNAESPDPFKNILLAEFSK
Experimental: as §1, §2, §3, §4

[3] = target: T3, D-stereospecific hydrolytic enzyme, SEQ ID No. 6 (Bacillus thuringiensis, UniProt A0A1W6WPG2)
T3 construct: E. coli, purified; crystallized, P21
T3 sequence (A0A1W6WPG2 40-385): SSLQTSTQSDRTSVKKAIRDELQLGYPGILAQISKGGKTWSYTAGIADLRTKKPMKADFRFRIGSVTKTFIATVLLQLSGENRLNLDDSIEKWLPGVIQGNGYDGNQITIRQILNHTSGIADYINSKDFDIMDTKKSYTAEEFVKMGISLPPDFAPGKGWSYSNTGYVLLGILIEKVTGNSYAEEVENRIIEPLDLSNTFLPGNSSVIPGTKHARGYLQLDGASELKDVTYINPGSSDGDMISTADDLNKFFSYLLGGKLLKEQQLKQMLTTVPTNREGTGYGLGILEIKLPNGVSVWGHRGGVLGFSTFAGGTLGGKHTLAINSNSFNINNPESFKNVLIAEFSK
Experimental: as §1, §2, §3, §4

[4] = target: T4, D-stereospecific hydrolytic enzyme, SEQ ID No. 8 (Bacillus thuringiensis, UniProt A0A1W6WYC6)
T4 construct: E. coli, purified
T4 sequence (A0A1W6WYC6 40-389): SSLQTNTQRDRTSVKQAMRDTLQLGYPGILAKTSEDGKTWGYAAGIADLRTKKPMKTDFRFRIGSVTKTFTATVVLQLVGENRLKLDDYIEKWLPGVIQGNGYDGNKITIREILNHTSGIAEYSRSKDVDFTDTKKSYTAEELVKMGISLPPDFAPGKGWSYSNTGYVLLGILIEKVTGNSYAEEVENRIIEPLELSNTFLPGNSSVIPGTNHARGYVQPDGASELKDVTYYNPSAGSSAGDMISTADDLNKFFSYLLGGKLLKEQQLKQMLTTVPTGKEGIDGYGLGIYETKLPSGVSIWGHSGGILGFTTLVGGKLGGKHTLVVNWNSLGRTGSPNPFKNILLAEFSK
Experimental: as §1, §2, §3, §4

[5] = target: T5, D-stereospecific hydrolytic enzyme, SEQ ID No. 9 (Bacillus thuringiensis, UniProt A0A1W6WP87)
T5 construct: E. coli, purified
T5 sequence (A0A1W6WP87 38-388): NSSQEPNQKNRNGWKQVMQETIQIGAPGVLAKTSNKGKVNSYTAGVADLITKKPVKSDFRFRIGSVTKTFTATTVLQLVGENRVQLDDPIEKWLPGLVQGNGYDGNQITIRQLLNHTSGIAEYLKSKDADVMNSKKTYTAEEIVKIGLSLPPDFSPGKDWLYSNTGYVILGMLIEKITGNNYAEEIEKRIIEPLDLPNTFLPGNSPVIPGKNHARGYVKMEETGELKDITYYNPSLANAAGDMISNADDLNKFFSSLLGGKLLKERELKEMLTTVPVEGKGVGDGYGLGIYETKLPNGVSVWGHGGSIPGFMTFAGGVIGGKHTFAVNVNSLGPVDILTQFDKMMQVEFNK
Experimental: as §1, §2, §3, §4

SMILES | concentration of additive at which 10% of the relative specific activity is still present [1] [M] | concentration of additive at which 10% of the relative specific activity is still present [2] [M] | concentration of additive at which 10% of the relative specific activity is still present [3] [M] | concentration of additive at which 10% of the relative specific activity is still present [4] [M] | concentration of additive at which 10% of the relative specific activity is still present [5] [M]
N=C(N)N [GdmCl, guanidinium hydrochloride] | 0.50 | 1.00 | 0.50 | 1.00 | 1.25
NC(N)=O [urea] | 1.50 | 1.25 | 2.00 | 2.00 | 2.25
OCCS [β-ME, ß-mercaptoethanol] | 0.50 | <0.25 | 0.50 | 0.50 | 0.50
